Data reported in patent US4507487A, “Chemical compounds” (Bristol-Myers Company, priority 1983, dated 1985).
In brackets after ≈: the same amount, converted by molar mass. Read-outs that look alike come from different tables or passages of the source.

Legend:
Type in all cases: cell-based
[1] = tested on: Ps. aeruginosa; assay: MIC, two-fold serial agar dilution in Mueller-Hinton agar, group (G-)-III; conditions: Pseudomonas aeruginosa, Ps. aeruginosa (6 strains), read-out: Geometric Mean of MIC
Method: (§1) In the primary evaluation of the compounds of this invention, the Minimum Inhibitory Concentrations (MIC's) of the compounds were determined by the two-fold serial agar dilution method in Mueller-Hinton agar against 32 strains of test organisms in six groups.

[2] = tested on: Cephalothinsensitive E. coli, Kl. pneumoniae and Pr. mirabilis; assay: MIC, two-fold serial agar dilution in Mueller-Hinton agar, group (G-)-Ia; conditions: read-out: Geometric Mean of MIC
Method: as §1
(G-)Ia: Cephalothinsensitive E. coli (2 strains), Kl. pneumoniae (1
strain) and Pr. mirabilis (2 strains)

[3] = tested on: M. morganii, Ent. cloacae and Ser. marcescens; assay: MIC, two-fold serial agar dilution in Mueller-Hinton agar, group (G-)-II; conditions: read-out: Geometric Mean of MIC
Method: as §1
(G-)II: M. morganii (1 strain), Ent. cloacae (2 strains) and Ser.

[4] = tested on: Penicillinsensitive S. aureus; assay: MIC, two-fold serial agar dilution in Mueller-Hinton agar, group (G+)-Ia; conditions: Staphylococcus aureus, read-out: Geometric Mean of MIC
Method: as §1

[5] = tested on: Penicillinresistant S. aureus; assay: MIC, two-fold serial agar dilution in Mueller-Hinton agar, group (G+)-Ib; conditions: Staphylococcus aureus, read-out: Geometric Mean of MIC
Method: as §1
(G+)Ib: Penicillinresistant S. aureus (5 strains)

[6] = tested on: Cephalothinresistant E. coli and Kl. pneumoniae; assay: MIC, two-fold serial agar dilution in Mueller-Hinton agar, group (G-)-Ib; conditions: read-out: Geometric Mean of MIC
Method: as §1
(G-)Ib: Cephalothinresistant E. coli (3 strains) and Kl. pneumoniae (3

[7] = (G-)-Ia, cephalothin-sensitive E. coli (2), Kl. pneumoniae (1), Pr. mirabilis (2 strains)
[8] = (G+)-Ia, penicillin-sensitive S. aureus (5 strains)
[9] = (G+)-Ib, penicillin-resistant S. aureus (5 strains)
[10] = (G-)-II, M. morganii (1), Ent. cloacae (2), Ser. marcescens (2 strains)

SMILES | MIC [1] [µg/mL] | MIC [2, 7] [µg/mL] | MIC [3] [µg/mL] | MIC [4, 8] [µg/mL] | MIC [5, 9] [µg/mL] | MIC [6] [µg/mL] | MIC [3, 10] [µg/mL] | MIC [2] [µg/mL] | MIC [4] [µg/mL] | MIC [5] [µg/mL]
CC(C)(O/N=C(\C(=O)NC1C(=O)N2C(C(=O)[O-])=C(C[n+]3ccsc3)CSC12)c1csc(N)n1)C(=O)O (stereo not drawn) [Example 5, 7-[(Z)-2-(2-Aminothiazol-4-yl)-2-(2-carboxyprop-2-oxyimino)acetamido]-3-thiazoliomethyl-3-cephem-4-carboxylate] | 3.1 (≈ 5.61 µM) | 0.13 (≈ 0.235 µM) | 3.6 (≈ 6.51 µM) | 8.3 (≈ 15 µM) | 25 (≈ 45.2 µM) | 2.5 (≈ 4.52 µM) | – | – | – | –
CC(C)(O/N=C(\C(=O)NC1C(=O)N2C(C(=O)[O-])=C(C[n+]3ccsc3SCC(=O)O)CS[C@H]12)c1csc(N)n1)C(=O)O (stereo partly drawn) [Example 13, 7-[(Z)-2-(2-Aminothiazol-4-yl)-2-(2-carboxyprop-2-oxyimino)acetamido]-3-(2-carboxymethylthiothiazolio)methyl-3-cephem-4-carboxylate] | 23 (≈ 35.8 µM) | 0.26 (≈ 0.405 µM) | – | 25 (≈ 38.9 µM) | 50 (≈ 77.8 µM) | 4 (≈ 6.22 µM) | 1.6 (≈ 2.49 µM) | – | – | –
C#CCO/N=C(\C(=O)NC1C(=O)N2C(C(=O)[O-])=C(C[n+]3ccsc3SC)CS[C@H]12)c1csc(N)n1 (stereo partly drawn) [Example 17, 7-[(Z)-2-(2-Aminothiazol-4-yl)-2-propargyloxyiminoacetamido]-3-(2-methylthiothiazolio)methyl-3-cephem-4-carboxylate] | 6.9 (≈ 12.5 µM) | – | 0.69 (≈ 1.25 µM) | – | – | 0.6 (≈ 1.09 µM) | – | 0.66 (≈ 1.2 µM) | 0.23 (≈ 0.418 µM) | 0.8 (≈ 1.45 µM)
Cc1scc[n+]1CC1=C(C(=O)[O-])N2C(=O)C(NC(=O)/C(=N\OC3(C(=O)O)CCC3)c3csc(N)n3)[C@H]2SC1 (stereo partly drawn) [Example 11, 7-[(Z)-2-(2-Aminothiazol-4-yl)-2-(1-carboxycyclobut-1-oxyimino)acetamido]-3-(2-methylthiazolio)methyl-3-cephem-4-carboxylate] | 2.1 (≈ 3.63 µM) | 0.076 (≈ 0.131 µM) | – | 4.2 (≈ 7.26 µM) | 9.5 (≈ 16.4 µM) | 1.6 (≈ 2.77 µM) | 0.4 (≈ 0.691 µM) | – | – | –
CC(C)(O/N=C(\C(=O)NC1C(=O)N2C(C(=O)[O-])=C(C[n+]3ccsc3N)CS[C@H]12)c1csc(N)n1)C(=O)O (stereo partly drawn) [Example 8, 7-[(Z)-2-(2-Aminothiazol-4-yl)-2-(2-carboxyprop-2-oxyimino)acetamido]-3-(2-amino-3-thiazolio)methyl-3-cephem-4-carboxylate] | 5.6 (≈ 9.87 µM) | 0.15 (≈ 0.264 µM) | – | 5.5 (≈ 9.69 µM) | 14 (≈ 24.7 µM) | 4 (≈ 7.05 µM) | 8.3 (≈ 14.6 µM) | – | – | –
COc1sc[n+](CC2=C(C(=O)[O-])N3C(=O)C(NC(=O)/C(=N\OC(C)(C)C(=O)O)c4csc(N)n4)C3SC2)c1C (stereo not drawn) [Example 9, 7-[(Z)-2-(2-Aminothiazol-4-yl)-2-(2-carboxyprop-2-oxyimino)acetamido]-3-(5-methoxy-4-methylthiazolio)methyl-3-cephem-4-carboxylate] | 6.3 (≈ 10.6 µM) | 0.1 (≈ 0.168 µM) | – | 9.5 (≈ 15.9 µM) | – | 1.6 (≈ 2.68 µM) | 2.8 (≈ 4.69 µM) | – | – | 16 (≈ 26.8 µM)
CNc1scc[n+]1CC1=C(C(=O)[O-])N2C(=O)C(NC(=O)/C(=N\OC(C)(C)C(=O)O)c3csc(N)n3)[C@H]2SC1 (stereo partly drawn) [Example 15, 7-[(Z)-2-(2-Aminothiazol-4-yl)-2-(2-carboxyprop-2-oxyimino)acetamido]-3-(2-methylaminothiazolio)methyl-3-cephem-4-carboxylate] | 13 (≈ 22.3 µM) | 0.4 (≈ 0.688 µM) | 3.6 (≈ 6.19 µM) | 7.2 (≈ 12.4 µM) | 25 (≈ 43 µM) | 5.5 (≈ 9.46 µM) | – | – | – | –
Cc1csc[n+]1CC1=C(C(=O)[O-])N2C(=O)C(NC(=O)/C(=N\OC(C)(C)C(=O)O)c3csc(N)n3)C2SC1 (stereo not drawn) [Example 7, 7-[(Z)-2-(2-Aminothiazol-4-yl)-2-(2-carboxyprop-2-oxyimino)acetamido]-3-(4-methylthiazolio)methyl-3-cephem-4-carboxylate] | 4 (≈ 7.06 µM) | 0.076 (≈ 0.134 µM) | – | 7.2 (≈ 12.7 µM) | 12.5 (≈ 22.1 µM) | 1.8 (≈ 3.18 µM) | 2.8 (≈ 4.94 µM) | – | – | –
CCSc1scc[n+]1CC1=C(C(=O)[O-])N2C(=O)C(NC(=O)/C(=N\OC3(C(=O)O)CCC3)c3csc(N)n3)[C@H]2SC1 (stereo partly drawn) [Example 12, 7-[(Z)-2-(2-Aminothiazol-4-yl)-2-(1-carboxycyclobut-1-oxyimino)acetamido]-3-(2-ethylthiothiazolio)methyl-3-cephem-4-carboxylate] | 5.7 (≈ 9.12 µM) | 0.066 (≈ 0.106 µM) | – | 1.8 (≈ 2.88 µM) | 4.7 (≈ 7.52 µM) | 0.79 (≈ 1.26 µM) | 0.4 (≈ 0.64 µM) | – | – | –
CSc1scc(C)[n+]1CC1=C(C(=O)[O-])N2C(=O)C(NC(=O)/C(=N\OC(C)(C)C(=O)O)c3csc(N)n3)[C@H]2SC1 (stereo partly drawn) [Example 16, 7-[(Z)-2-(2-Aminothiazol-4-yl)-2-(2-carboxyprop-2-oxyimino)acetamido]-3-(4-methyl-2-methylthiothiazolio)methyl-3-cephem-4-carboxylate] | 2.8 (≈ 4.57 µM) | 0.1 (≈ 0.163 µM) | – | 4.2 (≈ 6.85 µM) | 19 (≈ 31 µM) | 0.79 (≈ 1.29 µM) | 0.53 (≈ 0.865 µM) | – | – | –
Cc1c(CCO)sc[n+]1CC1=C(C(=O)[O-])N2C(=O)C(NC(=O)/C(=N\OC(C)(C)C(=O)O)c3csc(N)n3)C2SC1 (stereo not drawn) [Example 6, 7-[(Z)-2-(2-Aminothiazol-4-yl)-2-(2-carboxyprop-2-oxyimino)acetamido]-3-[5-(2-hydroxyethyl)-4-methylthiazolio]methyl-3-cephem-4-carboxylate] | 4.4 (≈ 7.2 µM) | 0.076 (≈ 0.124 µM) | – | 8.3 (≈ 13.6 µM) | 25 (≈ 40.9 µM) | 1.8 (≈ 2.95 µM) | 2.8 (≈ 4.58 µM) | – | – | –
CO/N=C(\C(=O)NC1C(=O)N2C(C(=O)[O-])=C(C[n+]3csc(CCN)c3C)CSC12)c1csc(N)n1 (stereo not drawn) [Example 10, 7-[(Z)-2-(2-Aminothiazol-4-yl)-2-methoxyiminoacetamido]-3-[5-(2-aminoethyl)-4-methylthiazolio]methyl-3-cephem-4-carboxylate] | 22 (≈ 40.9 µM) | 0.8 (≈ 1.49 µM) | 5.5 (≈ 10.2 µM) | 2.1 (≈ 3.91 µM) | 6.3 (≈ 11.7 µM) | 1.4 (≈ 2.6 µM) | – | – | – | –
CC(C)(O/N=C(\C(=O)NC1C(=O)N2C(C(=O)[O-])=C(C[n+]3ccsc3NC=O)CS[C@H]12)c1csc(N)n1)C(=O)O (stereo partly drawn) [Example 14, 7-[2-(Z)-(2-Aminothiazol-4-yl)-2-(2-carboxyprop-2-yloxyimino)acetamido]-3-(2-formylaminothiazolio)methyl-3-cephem-4-carboxylate] | 7 (≈ 11.8 µM) | 0.15 (≈ 0.252 µM) | – | 5.5 (≈ 9.23 µM) | 12.5 (≈ 21 µM) | 3.6 (≈ 6.04 µM) | 3.2 (≈ 5.37 µM) | – | – | –
